“And” between values parts separate entries of the source, which are not always exact repeats. Equal entries are not always repeated. “Also recorded” adds a separate entry of the source.

The source of these data is patent US12083084B2, “Method for enhancing energy production and metabolism in cells” (REPLICON HEALTH OY, priority 2013, dated 2024).

Series [1] concerns primary human hepatocytes. The series is described as follows: Cell viability by LDH release (CytoTox-One) in primary human hepatocytes. It counts as cell-based. How it is done:
(§1) Primary human hepatocytes were purchased from Celsis In Vitro Technologies (1450 South Rolling Road Baltimore, MD 21227, USA). […] According to the information provided by the Celsis, hepatocytes from each donor should have at least 70% viability and more than 5 million viable cells. The medium for the culture of hepatocytes was provided by Celsis. They were InVitroGRO CP (for plating) medium (Z99029) and InVitroGRO HI (for incubation) medium (Z99009). Antibiotics (Torpedo Antibiotics Mix, Z990007) were also from Celsis. The thaw, plating and culture of cells were carried out according to the instruction provided by the Celsis In Vitro Technologies.
(§2) For the measurement of cell viability after treatment of test compound, CytoTox-One Homogeneous Membrane Integrity Assay kit (Promega, G7891) was used. The CytoTox-One Assay is a rapid fluorescent measure of the release of lactate dehydrogenase (LDH) from cells with a damaged membrane. The number of […] cells correlates to the fluorescence intensity determined by a fluorescence plate reader (Hidex Chameleon V multiplate reader, Hidex Oy, Turku, Finland) with excitation 544 nm and emission 590 nm. For the measurement of cellular reactive oxygen species (ROS), DCFDA Cellular ROS Detection Assay Kit from Abcam (ab113851) was used. Reactive oxygen species (ROS) assay kit (ab113851) uses the cell permeant reagent 2′,7′-dichlorofluorescein diacetate (DCFDA), a fluorogenic dye that measures hydroxyl, peroxyl and other ROS activity with the cell. The activity of ROS was measured by a fluorescence plate reader (Hidex) with excitation/emission wavelengths of 485 nm/535 nm.
(§3) The culture of primary hepatocytes was carried out based on the instructions provided by Celsis. After thawing, the cells were suspended in InVitroGRO CP medium. Thereafter the viability of cells was determined using the Trypan Blue exclusion method. Then the concentration of cells was adjusted using InVitroGRO CP medium, so about 30000-35000 cells/100 μl/well can be seeded in collagen I coated 96 well plate (BD, 734-0248).
(§4) After seeding, the cells were cultured overnight in the cell culture incubator (Sanyo MCO 18) at atmosphere of 95% air, 5% CO2 at 37° C. Thereafter, the culture medium for the cells was changed to InVitroGRO Hi (Hi Medium) containing test compound (D-glyceric acid calcium salt dehydrate) at the concentrations of 0, 0.2, 2 and 20 μg/ml (study 1, Table 1.1.1) and 0, 0.4, 2 and 10 μg/ml (study 2, Table 1.1.2).
(§5) After 24 h (in study 1) and 20 h (in studies 2-4) incubation medium was renewed. Second renewal of the incubation medium occurred at 48 h in study 1 and at 40 h in other studies. ROS and LDH were measured after 1.5-2 hours after last change of the medium, i.e. in a situation with moderate metabolic stress.
The measurement of LDH from medium (leaked LDH) and from cell and medium (total LDH) was carried out according to the instruction provided by the Promega (G7891). The plate was incubated at an incubator to achieve a temperature of 22° C. Thereafter, equal volume of CytoTox-ONE Reagent to cell culture medium (100 μl) was added to each well and mix for 30 seconds. Then they were incubated for 10 min at 22° C., and then 50 μl of Stop Solution was added to each well. After gentle mixing, the fluorescence signal was measured at an excitation wavelength of 560 nm and emission wavelength of 590 nm using the Hidex Chameleon V multiplate reader (Hidex Oy, Turku, Finland).
For the total LDH measurement, all the steps are same except a 2 μl of Lysis Solution (per 100 μl original volume) will be added to the each well to lyse the cells before CytoTox-ONE Reagents will be added.
For the LDH and ROS assays, individual values of each measurement were stored and average value of fluorescence signals of various repeats of each treatment at studied time point were calculated and compared. […] Viability (LDH) measurements contained 4-6 repeats depending on the study. […]

Series [2] can be described thus: Plasma sample analyses on PYR, ALA, LAC and NO. It counts as in vivo, human. Here is the method:
As mentioned above also plasma samples were collected from S1 and S9, at 0 h and 1 h both in 12 h and 4.5 day test, i.e. 16 observations were gathered with either DGAcs or zero control situations. Additionally in statin group (S10 and S11) 2×2 measurements were done. Altogether there were 20 observations and, thus 10 differences between control and DGAcs administration can be calculated. Pyruvate concentrations were measured using Pyruvate Assay Kit from Sigma (MAK071 Sigma). Alanine concentrations were measured using Sigma Alanine Assay Kit (MAK001). Lactate concentrations were measured using Sigma Lactate Assay Kit (MAK064). And finally nitric oxide (NO) concentrations were measured using OxiSelect™ In Vitro Nitric Oxide (Nitrite/Nitrate) Assay Kit from Nordic Biosite Oy.

Series [3] has as its system primary human hepatocytes. In words: Cellular ROS detection (DCFDA) in primary human hepatocytes. It counts as cell-based. Conditions: for ROS production compared to 0 dose/control: donor four, High Medium, FIG. 5; for ROS compared to 0 dose/control (in words): moderate metabolic stress (1.5-2 h after change of medium). Here is the method: as §1, §2, §3, §4
In study 3 also LGA and HPA were tested and compared to DGA (see FIGS. 11c and 11d) with same doses as in study 2.
In studies 2-4 additional diet with 0.75 mM of palmitic acid (“fatty acid diet”) was added to Hi Medium. Hi Medium in itself contains ample amounts of glucose and fructose and other necessary ingredients for keeping viability of the cell culture at optimal level.
as §5
The measurement of cellular reactive oxygen species (ROS) was carried out according to the instruction of Abcam (ab113851). At the end of treatment time point, culture medium was taken away for leaked LDH measurement and cells were washed with 100 μl/well PBS once. Thereafter 100 μl/well of DCDA mix was added and incubated for 45 min at 37° C. in the dark. Then cells were washed once with 1× buffer solution. The fluorescence signal was measured at an excitation wavelength of 485 nm and emission wavelength of 535 nm using the Hidex Chameleon V multiplate reader (Hidex Oy, Turku, Finland).
For the LDH and ROS assays, individual values of each measurement were stored and average value of fluorescence signals of various repeats of each treatment at studied time point were calculated and compared. […]

Where [4] appears, read: average of measurements 1-10, vs zero control.
The mark [5] stands for this setting: healthy volunteer group only, S1 and S9.

With `O=C(O)[C@H](O)CO` [DGA, D-glyceric acid], the “viability compared to 0 dose” value in series [1] (donor alpha, 0.4 DGA dose, Hi Medium+palmitic acid, FIG. 10c) is listed as “statistically significant decrease in viability; also recorded: decline is statistically significant”. Also, the “hepatocytes viability increased in some cases by” value in series [1] (donor alpha, FIG. 10c) is 40-60%. For the same molecule, the “viability of cells increased on average by” value in series [1] (primary human hepatocytes) is on record as 5-10%. Besides, the “decline in NO” value in series [2] (healthy individuals) is 13%. Moreover, the “increase of plasma/blood pyruvate levels” value in series [2] (summary statement, humans, Example 2.3.3) is 20-25% and 25%. The “ROS production compared to 0 dose/control” value is recorded as “Significant efficacy” in series [3] (1.5 h after new medium (moderate metabolic stress), 1.4 μM); “no effect” in series [3] (1.5 h after new medium, 0.14 μM); “Biggest ROS scavenging effect” in series [3] (1.5 h after new medium, 14 μM (2 μg/ml)). In addition, the “decline of ROS compared to control” value in series [3] (donor one, Hi Medium+Palmitic acid, FIG. 11a) is listed as “same decline”. In addition, the “amount of ROSs decreased by” value in series [3] (primary human hepatocytes, metabolic stress situation) is given as 15-40%. For the same molecule, in series [3] (primary human hepatocytes), the “ROS compared to 0 dose/control (in words)” value is reported as “decreases ROS”. For the same molecule, the “ROS scavenging in equimolar comparison against vitamin E, glutathione, vitamin C (and morin dehydrate)” value in series [3] (study 4, donors alpha (FIG. 5) and (FIG. 6), 14 μM) is “superior or at least as good ROS scavenger; also recorded: superior antioxidant”.
On to `O.O.O=C([O-])[C@H](O)CO.O=C([O-])[C@H](O)CO.[Ca+2]` [DGAcs, D-glyceric acid, calcium salt dehydrate], for which, in series [1] (primary human hepatocytes, standard treatment, moderate metabolic stress), the “viability compared to 0 dose (in words)” value is “modestly increase the viability”. The “increase of plasma pyruvate” value in series [2] (S1 and S9, 1 hour after administering 75 000 mg of glucose) is on record as roughly 20%. In series [2] (all measurements, vs control), the “decline in NO” value is “approximately 10%”. In series [2] (setting [4]), the “Average Change of the Concentration, plasma Alanine” value was found to be 3.5%; the “Average Change of the Concentration, plasma Nitric Oxide” value is recorded as −9.9%; the “Average Change of the Concentration, plasma Pyruvate” value was found to be 25.9%. Further, in series [2] (average of measurements, vs zero control), the “Average Change of the Concentration, plasma Lactate” value is −31.9%. Further, in series [2] (average, subjects with BMI < 25, vs zero control), the “Average Change of the Concentration, plasma Nitric Oxide (BMI < 25)” value is −13.4%. Besides, in series [2] (setting [5]), the “decrease of plasma lactate” value is given as roughly 38% and the “increase of plasma pyruvate” value was “approximately 25%”. The “decrease of plasma/blood lactate” value in series [2] (summary statement, humans, compared to control, Example 2.3.3) was 31.9% and 30%. Further, in series [3] (primary human hepatocytes), the “ROS compared to 0 dose/control (in words)” value is listed as “decrease ROS levels significantly; also recorded: reduced ROS”.
